Source: PubChem BioAssay (NCI)
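Method: 48-hour compound exposure of cells in 96-well plates, five concentrations, linear interpolation of endpoints. The concentration for full growth arrest is given as TGI.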

Key:
Experiment in all cases: DTP human tumour cell line panel, 48 h
HL-60(TB) leukemia = test system: HL-60(TB) leukemia
MALME-3M melanoma = test system: MALME-3M melanoma
SK-MEL-2 melanoma = test system: SK-MEL-2 melanoma
UACC-62 melanoma = test system: UACC-62 melanoma
HCT-116 colon = test system: HCT-116 colon
K-562 leukemia = test system: K-562 leukemia
SR leukemia = test system: SR leukemia
HT29 colon = test system: HT29 colon
TK-10 renal = test system: TK-10 renal
SF-268 CNS = test system: SF-268 CNS
SK-MEL-5 melanoma = test system: SK-MEL-5 melanoma
A498 renal = test system: A498 renal
KM12 colon = test system: KM12 colon
MDA-MB-231 breast = test system: MDA-MB-231 breast
DU-145 prostate = test system: DU-145 prostate
NCI-H522 lung = test system: NCI-H522 lung
MDA-MB-435 = test system: MDA-MB-435
NCI-H23 lung = test system: NCI-H23 lung
IGROV1 ovarian = test system: IGROV1 ovarian
EKVX NSCLC = test system: EKVX NSCLC
SF-295 CNS = test system: SF-295 CNS
HS 578T breast = test system: HS 578T breast
SNB-75 CNS = test system: SNB-75 CNS
SW-620 colon = test system: SW-620 colon
OVCAR-4 ovarian = test system: OVCAR-4 ovarian
OVCAR-8 ovarian = test system: OVCAR-8 ovarian
SNB-19 CNS = test system: SNB-19 CNS
HCC-2998 colon = test system: HCC-2998 colon
UACC-257 melanoma = test system: UACC-257 melanoma
MCF7 breast = test system: MCF7 breast
MOLT-4 leukemia = test system: MOLT-4 leukemia
A549 NSCLC = test system: A549 NSCLC
SK-MEL-28 melanoma = test system: SK-MEL-28 melanoma
SK-OV-3 ovarian = test system: SK-OV-3 ovarian
ACHN renal = test system: ACHN renal
SN12C renal = test system: SN12C renal
T-47D breast = test system: T-47D breast
M14 melanoma = test system: M14 melanoma
HOP-92 NSCLC = test system: HOP-92 NSCLC
LOX IMVI melanoma = test system: LOX IMVI melanoma
RPMI-8226 leukemia = test system: RPMI-8226 leukemia
COLO 205 colon = test system: COLO 205 colon
HOP-62 NSCLC = test system: HOP-62 NSCLC
PC-3 prostate = test system: PC-3 prostate
CAKI-1 renal = test system: CAKI-1 renal
HCT-15 colon = test system: HCT-15 colon
NCI-H460 lung = test system: NCI-H460 lung
OVCAR-3 ovarian = test system: OVCAR-3 ovarian
SF-539 CNS = test system: SF-539 CNS
U251 CNS = test system: U251 CNS
786-0 renal = test system: 786-0 renal
BT-549 breast = test system: BT-549 breast
OVCAR-5 ovarian = test system: OVCAR-5 ovarian
NCI-H226 lung = test system: NCI-H226 lung
RXF 393 renal = test system: RXF 393 renal
UO-31 renal = test system: UO-31 renal
CCRF-CEM leukemia = test system: CCRF-CEM leukemia

Compound: CC/C(=C\c1ccc(Cl)c(Cl)c1)[N+](=O)[O-]
- TGI (HL-60(TB) leukemia): 5.67 µM
- TGI (MALME-3M melanoma): 4.11 µM
- TGI (SK-MEL-2 melanoma): 4.85 µM
- TGI (UACC-62 melanoma): 3.89 µM
- TGI (HCT-116 colon): > 100 µM
- TGI (K-562 leukemia): 47.4 µM
- TGI (SR leukemia): 3.61 µM
- TGI (HT29 colon): > 100 µM
- TGI (TK-10 renal): 4.04 µM
- TGI (SF-268 CNS): 4.57 µM
- TGI (SK-MEL-5 melanoma): 3.92 µM
- TGI (A498 renal): 24.1 µM
- TGI (KM12 colon): 10.4 µM
- TGI (MDA-MB-231 breast): 5.4 µM
- TGI (DU-145 prostate): 5.39 µM
- TGI (NCI-H522 lung): 3.49 µM
- TGI (MDA-MB-435): 3.1 µM
- TGI (NCI-H23 lung): 5.21 µM
- TGI (IGROV1 ovarian): 3.31 µM
- TGI (EKVX NSCLC): 7.88 µM
- TGI (SF-295 CNS): 5.36 µM
- TGI (HS 578T breast): > 100 µM
- TGI (SNB-75 CNS): > 100 µM
- TGI (SW-620 colon): > 100 µM
- TGI (OVCAR-4 ovarian): 7.57 µM
- TGI (OVCAR-8 ovarian): 3.4 µM
- TGI (SNB-19 CNS): 5.7 µM
- TGI (HCC-2998 colon): 3.59 µM
- TGI (UACC-257 melanoma): 3.58 µM
- TGI (MCF7 breast): 3.48 µM
- TGI (MOLT-4 leukemia): 2.01 µM

Compound: O=C1Nc2ccc(Br)cc2/C1=C/C(=O)c1ccccc1
- TGI (A549 NSCLC): > 62.6 µM
- TGI (SK-MEL-28 melanoma): 32.1 µM
- TGI (HL-60(TB) leukemia): > 29.1 µM
- TGI (MALME-3M melanoma): 16.8 µM
- TGI (SK-MEL-2 melanoma): 32.3 µM
- TGI (UACC-62 melanoma): 32.9 µM
- TGI (HCT-116 colon): 9.04 µM
- TGI (SK-OV-3 ovarian): 31.9 µM
- TGI (K-562 leukemia): > 100 µM
- TGI (ACHN renal): 3.32 µM
- TGI (SR leukemia): > 24.9 µM
- TGI (SN12C renal): 10.5 µM
- TGI (T-47D breast): 32.1 µM
- TGI (HT29 colon): 3.39 µM
- TGI (TK-10 renal): 3.7 µM
- TGI (SF-268 CNS): 50.8 µM
- TGI (M14 melanoma): 28.1 µM
- TGI (SK-MEL-5 melanoma): 41.7 µM
- TGI (HOP-92 NSCLC): 12.5 µM
- TGI (LOX IMVI melanoma): 4.02 µM
- TGI (RPMI-8226 leukemia): > 23.6 µM
- TGI (COLO 205 colon): 3.97 µM
- TGI (HOP-62 NSCLC): 61.2 µM
- TGI (PC-3 prostate): 26.9 µM
- TGI (A498 renal): 34.6 µM
- TGI (KM12 colon): 23 µM
- TGI (CAKI-1 renal): 20 µM
- TGI (MDA-MB-231 breast): 29.5 µM
- TGI (DU-145 prostate): 23.8 µM
- TGI (HCT-15 colon): 6.51 µM
- TGI (NCI-H460 lung): 36.9 µM
- TGI (NCI-H522 lung): 5.17 µM
- TGI (MDA-MB-435): 42 µM
- TGI (NCI-H23 lung): 23.8 µM
- TGI (OVCAR-3 ovarian): 18.2 µM
- TGI (IGROV1 ovarian): 13.3 µM
- TGI (SF-539 CNS): 13 µM
- TGI (EKVX NSCLC): 28.6 µM
- TGI (U251 CNS): 36.7 µM
- TGI (SF-295 CNS): 32.5 µM
- TGI (HS 578T breast): > 55.4 µM
- TGI (786-0 renal): 3.28 µM
- TGI (SNB-75 CNS): 32 µM
- TGI (SW-620 colon): 6.42 µM
- TGI (OVCAR-4 ovarian): 30.5 µM
- TGI (BT-549 breast): 24.6 µM
- TGI (OVCAR-5 ovarian): 53.6 µM
- TGI (OVCAR-8 ovarian): 5.31 µM
- TGI (NCI-H226 lung): 43.8 µM
- TGI (SNB-19 CNS): 37.7 µM
- TGI (HCC-2998 colon): 29 µM
- TGI (UACC-257 melanoma): 29 µM
- TGI (RXF 393 renal): 5.45 µM
- TGI (MCF7 breast): 15.3 µM
- TGI (UO-31 renal): 6.98 µM
- TGI (CCRF-CEM leukemia): 8.36 µM
- TGI (MOLT-4 leukemia): > 26.4 µM
